A short description of the data set: Cetylpyridinium chloride adsorption on mucin-coated hydroxyapatite disks, HPLC of extract. The conditions noted are these: for % Activity: relative to no surfactant. In kind it is physicochemical. The method, then: Disks of hydroxyapatite (HAP) measuring 0.5 inch diameter and 0.04 inch thick were obtained from Clarkson Chromatography Products (Williamsport, Penn.). The disks were hydrated in deionized water for one hour and then allowed to air dry.
A 1% dispersion of bovine submaxillary mucin (type 1S, from Sigma) was then prepared. The HAP disks were then soaked in the 1% mucin dispersion overnight. The disks were then allowed to air dry for al least 2 hours. These disks, composed of HAP on which was deposited a layer of mucin, represented an oral surface.
The disks were soaked in 5 ml of the test solution for 10 minutes in a polystyrene petri dish (35 mm diameter×10 mm deep, from Becton Dickinson). The disks were then removed, rinsed for 3 seconds with deionized water on each side with a wash bottle.
The extractant solution is composed of 60 parts of a 20 mM phosphate buffer and 40 parts methanol, in which is dissolved 30 mM cetyltrimethylammonium bromide. The disks were soaked in 5 ml of the extractant solution for 2 hours.

The mark [1] stands for this setting: Example 2: test solution as Example 1, also 0.125% by weight sodium bicarbonate.
[2] abbreviates: Example 1: test solution 0.125% cetylpyridinium chloride + 0.9% surfactant, disks soaked 10 minutes.
Where [3] appears, read: Example 1: test solution 0.125% cetylpyridinium chloride + 0.9% surfactant.

`CCCCCCCCCC[NH2+][O-]` [Decylamine oxide]: under setting [1], the CPC adsorbed was 39.1 μg/disk and the “% Activity” value turned out to be 62.7%.
For `CCCCCCCC[NH2+][O-]` [Octylamine oxide] the same measures were 47.4 μg/disk and 76.0%.
Consider Cocamidopropyl betaine, for which the CPC adsorbed under setting [2] stood at 41.8 μg/disk and the CPC adsorbed under setting [1] came out at 41.2 μg/disk. Further, the “% Activity” value reads like this: under setting [3], 70.4%; under setting [1], 66.0%. Besides, the “cetylpyridinium chloride absorbed (in words)” value (Example 1 test solutions) was “clearly superior”.
As to Cocoamphodiacetate, the CPC adsorbed under setting [2] was found to be 8.0 μg/disk. The “% Activity” value under setting [3] came out at 13.5%.
Take Cocobetaine: under setting [1], the CPC adsorbed is 48.8 μg/disk and the “% Activity” value is reported as 78.2%.
For Dodecyl-Amphodiacetate, in that order: 10.6 μg/disk and 17.0%.
Regarding Dodecyl-Iminodipropionate, under setting [1], the CPC adsorbed worked out at 7.4 μg/disk and the “% Activity” value was found to be 11.9%.

Values taken from patent publication US6471948B1 (Church & Dwight Co. Inc., priority 2000, dated 2002).
